These results are taken from article PMC6261253 (Nature, 2018).

In series [1] the target is T1, DHX36-AAA (Bos taurus, UniProt Q05B79, K192A/K193A/K194A).
T1 sequence (Q05B79 55-1010 K192A/K193A/K194A): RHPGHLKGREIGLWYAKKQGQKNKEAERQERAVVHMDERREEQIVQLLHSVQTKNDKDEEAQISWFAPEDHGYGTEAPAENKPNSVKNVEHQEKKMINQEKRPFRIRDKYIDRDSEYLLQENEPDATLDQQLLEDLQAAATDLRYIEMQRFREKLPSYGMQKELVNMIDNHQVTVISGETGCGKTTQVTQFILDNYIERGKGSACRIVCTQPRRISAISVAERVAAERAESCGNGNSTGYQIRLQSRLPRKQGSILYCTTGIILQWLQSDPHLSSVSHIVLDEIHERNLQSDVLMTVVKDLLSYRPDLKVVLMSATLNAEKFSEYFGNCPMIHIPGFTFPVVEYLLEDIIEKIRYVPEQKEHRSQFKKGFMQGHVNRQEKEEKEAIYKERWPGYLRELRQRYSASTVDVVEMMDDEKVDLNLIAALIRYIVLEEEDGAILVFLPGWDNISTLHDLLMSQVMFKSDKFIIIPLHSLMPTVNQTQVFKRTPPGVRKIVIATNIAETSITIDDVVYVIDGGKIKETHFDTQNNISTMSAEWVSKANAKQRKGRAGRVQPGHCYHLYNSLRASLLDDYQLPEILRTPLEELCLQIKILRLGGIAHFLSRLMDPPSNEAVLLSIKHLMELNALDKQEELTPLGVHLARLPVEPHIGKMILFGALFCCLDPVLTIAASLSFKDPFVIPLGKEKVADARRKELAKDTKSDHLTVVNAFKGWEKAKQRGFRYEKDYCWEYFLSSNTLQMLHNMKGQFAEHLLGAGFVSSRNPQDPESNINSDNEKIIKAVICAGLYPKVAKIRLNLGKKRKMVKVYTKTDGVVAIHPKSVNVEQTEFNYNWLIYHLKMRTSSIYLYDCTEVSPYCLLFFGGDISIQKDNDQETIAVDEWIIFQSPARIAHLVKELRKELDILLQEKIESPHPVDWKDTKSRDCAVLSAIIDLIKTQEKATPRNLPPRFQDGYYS
Kind of series: single-molecule FRET, helicase dissociation from G-quadruplex DNA. Type of series: biochemical. As to conditions: ATP added to DHX36-AAA bound to c-Myc G-quadruplex DNA with 3' T9 tail.

Series [2] has as its target T2, DHX36-DSM (crystallization construct) (Bos taurus, UniProt Q05B79 55-1010, E435Y;E436Y;K437Y;K752A;D753A;K755A;del1-54;del111-159).
T2 sequence: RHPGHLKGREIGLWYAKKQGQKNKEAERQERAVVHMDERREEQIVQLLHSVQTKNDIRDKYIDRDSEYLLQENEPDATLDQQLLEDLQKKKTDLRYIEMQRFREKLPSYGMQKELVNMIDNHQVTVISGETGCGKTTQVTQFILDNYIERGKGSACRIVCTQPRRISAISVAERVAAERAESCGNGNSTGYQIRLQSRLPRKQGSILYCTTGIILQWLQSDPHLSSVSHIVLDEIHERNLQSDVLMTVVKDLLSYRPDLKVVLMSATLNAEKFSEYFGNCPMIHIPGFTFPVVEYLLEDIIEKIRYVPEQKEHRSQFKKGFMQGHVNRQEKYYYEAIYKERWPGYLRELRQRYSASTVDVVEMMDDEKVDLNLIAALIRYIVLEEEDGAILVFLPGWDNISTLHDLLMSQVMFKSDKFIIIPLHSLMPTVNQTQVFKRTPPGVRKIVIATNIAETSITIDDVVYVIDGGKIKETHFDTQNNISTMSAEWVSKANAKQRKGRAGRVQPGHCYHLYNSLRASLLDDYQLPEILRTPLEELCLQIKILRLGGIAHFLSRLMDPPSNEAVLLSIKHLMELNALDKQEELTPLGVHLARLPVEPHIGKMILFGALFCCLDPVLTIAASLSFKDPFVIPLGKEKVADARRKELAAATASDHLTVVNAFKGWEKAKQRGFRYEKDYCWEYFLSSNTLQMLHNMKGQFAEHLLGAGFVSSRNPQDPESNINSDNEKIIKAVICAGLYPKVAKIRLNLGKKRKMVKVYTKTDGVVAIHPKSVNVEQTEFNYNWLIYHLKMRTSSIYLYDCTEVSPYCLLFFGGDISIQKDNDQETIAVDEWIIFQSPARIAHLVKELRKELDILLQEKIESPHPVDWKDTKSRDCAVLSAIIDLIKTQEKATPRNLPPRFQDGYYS
The experiment in a line: X-ray crystallography.

`Nc1ncnc2c1ncn2[C@@H]1O[C@H](COP(=O)(O)OP(=O)(O)OP(=O)(O)O)[C@@H](O)[C@H]1O` [ATP]: the “single-molecule FRET, helicase dissociation from G-quadruplex DNA” value in series [1] is on record as “Addition of ATP (red arrow) while DHX36-AAA is displaying repetitive unfolding activity”. For the molecule AGGGTGGGTAGGGTGGGTTTTTTT (structured_DNA) [DNAMyc], the binding result in series [2] was “binds”.
